The text below walks through data of PubChem BioAssay (NCI).

Structures are written as SMILES.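 Interpolation was linear, between the two tested concentrations surrounding the appropriate level; five concentrations were tested over 48 hours in 96-well plates. The concentration for full growth arrest is given as TGI.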

Some test systems named below: CAKI-1 renal; DMS 273 small cell lung; HL-60(TB) leukemia; HOP-18 NSCLC; KM20L2 colon; M19-MEL melanoma; UO-31 renal; OVCAR-4 ovarian.
What all share (experiment): NCI-60 cell line screen, 48 h

Turning to `Cc1nc(-n2nc(-c3ccccc3)cc2-c2ccccc2)sc1C(=O)/C=C/c1cccc([N+](=O)[O-])c1`, the TGI with CAKI-1 renal stood at 49.6 µM; with DMS 273 small cell lung, 83.1 µM; in the assay with HL-60(TB) leukemia, 31.3 µM; in the assay on HOP-18 NSCLC, 24.5 µM; with KM20L2 colon, 40.8 µM; with M19-MEL melanoma, 30.4 µM. For the same compound, the TGI in the assay on UO-31 renal was determined as 23.7 µM.

With `CCOC(=O)C(=O)Nc1nc2ccc(C)cc2s1`, the TGI in the assay on CAKI-1 renal, in the assay on DMS 273 small cell lung, in the assay on KM20L2 colon, in the assay on M19-MEL melanoma, in the assay with OVCAR-4 ovarian and in the assay on UO-31 renal was > 100 µM throughout.

`Cc1ccc([N+]2=NC(c3ccccc3)=NN(c3ccccc3)C2)cc1`: the TGI in the assay on DMS 273 small cell lung, with HL-60(TB) leukemia, in the assay on KM20L2 colon, with M19-MEL melanoma, in the assay with OVCAR-4 ovarian and in the assay with UO-31 renal was > 100 µM each time.

For the compound `CN1C/C(=C\c2ccc(C(=O)O)cc2)C(=O)/C(=C/c2ccc(C(=O)O)cc2)C1`, the TGI in the assay with CAKI-1 renal, in the assay with DMS 273 small cell lung, with HL-60(TB) leukemia, with HOP-18 NSCLC, with KM20L2 colon and with M19-MEL melanoma was > 100 µM in each case. The TGI in the assay on OVCAR-4 ovarian and in the assay on UO-31 renal was > 100 µM throughout.

As to `O=C(CCc1cc(-c2ccc(F)cc2)n[nH]1)N(Cc1ccccc1)Cc1ccccc1`, the TGI with CAKI-1 renal, in the assay on DMS 273 small cell lung, in the assay on HOP-18 NSCLC, with KM20L2 colon, in the assay on M19-MEL melanoma and in the assay with UO-31 renal was > 100 µM in each case.

Regarding `C/C(=N\Nc1n[nH]c(=S)n1N)c1c(O)cc(C)oc1=O`, the TGI in the assay on CAKI-1 renal, in the assay with HL-60(TB) leukemia, with HOP-18 NSCLC, in the assay with KM20L2 colon, with M19-MEL melanoma and with OVCAR-4 ovarian was > 100 µM throughout. The TGI in the assay on UO-31 renal was > 100 µM.

Regarding `O/N=C1\C(=C\c2ccc3c(c2)OCCO3)CCCC1C(NO)c1ccc2c(c1)OCCO2` (configuration not stated), the TGI in the assay on CAKI-1 renal was > 100 µM; in the assay with DMS 273 small cell lung, 43 µM; with HL-60(TB) leukemia, 71 µM; with HOP-18 NSCLC it was > 100 µM; in the assay on KM20L2 colon it was 35.6 µM; with M19-MEL melanoma, 52.5 µM. The TGI in the assay with OVCAR-4 ovarian was > 100 µM; in the assay with UO-31 renal, 68.7 µM.

`COC(=O)C#CC(N)=O`: the TGI in the assay on CAKI-1 renal was > 67.1 µM; in the assay on DMS 273 small cell lung, > 100 µM; with HL-60(TB) leukemia, 19.8 µM; in the assay with HOP-18 NSCLC it was > 81.1 µM; in the assay on KM20L2 colon, > 31.6 µM; in the assay with M19-MEL melanoma, > 100 µM. Also, the TGI with OVCAR-4 ovarian and in the assay on UO-31 renal was > 100 µM throughout.

Turning to `O=C(N/C(=C\c1ccc(F)cc1)c1nc2ccccc2[nH]1)c1ccccc1`, the TGI with CAKI-1 renal, in the assay on HOP-18 NSCLC, with KM20L2 colon, with M19-MEL melanoma, in the assay with OVCAR-4 ovarian and in the assay with UO-31 renal was > 100 µM throughout.

For the compound `COC(=O)C(=O)C(C#N)c1c(Cl)cccc1Cl` (configuration not stated), the TGI in the assay with CAKI-1 renal, in the assay with DMS 273 small cell lung, in the assay with HL-60(TB) leukemia, in the assay with KM20L2 colon, in the assay with M19-MEL melanoma and in the assay on OVCAR-4 ovarian was > 100 µM each time. Besides, the TGI with UO-31 renal is > 100 µM.

In the case of `CC1(C2CCC3(C)C(C2)C3Sc2ccccc2)OCCO1` (configuration not stated), the TGI in the assay with CAKI-1 renal was found to be 51.4 µM; in the assay on DMS 273 small cell lung it was 60 µM; with HL-60(TB) leukemia, 29.7 µM; in the assay on M19-MEL melanoma it was 40.6 µM; in the assay with OVCAR-4 ovarian, 81.7 µM; in the assay on UO-31 renal it was 31.4 µM.

For `COc1cc([C@@H]2c3cc4c(cc3[C@@H](NCc3cccc(F)c3)C3COC(=O)[C@@H]32)OCO4)cc(OC)c1O` (some centres not stated), the TGI in the assay on CAKI-1 renal was 51.4 µM; in the assay on DMS 273 small cell lung it was 14.3 µM; in the assay with HL-60(TB) leukemia, 3.93 µM; in the assay on HOP-18 NSCLC it was > 65 µM; in the assay on KM20L2 colon it was 21.2 µM; with OVCAR-4 ovarian, > 65 µM. In the assay with UO-31 renal, this compound displayed a TGI of 14.3 µM.

Turning to `NC(=O)c1nc(-c2ccc(Cl)c(Cl)c2)nc2ccccc12`, the TGI in the assay with CAKI-1 renal was > 100 µM; with DMS 273 small cell lung, > 24.9 µM; with HL-60(TB) leukemia it was > 100 µM; in the assay with HOP-18 NSCLC, > 100 µM; in the assay with KM20L2 colon it was > 100 µM; in the assay on M19-MEL melanoma, > 100 µM. The TGI with OVCAR-4 ovarian and in the assay with UO-31 renal was > 100 µM each time.

Consider `NC1=Nc2ccccc2Sc2ccccc21`, for which the TGI in the assay with CAKI-1 renal, with DMS 273 small cell lung, in the assay with HL-60(TB) leukemia, with HOP-18 NSCLC, in the assay with KM20L2 colon and with M19-MEL melanoma was > 100 µM each time. Besides, the TGI in the assay on OVCAR-4 ovarian and in the assay with UO-31 renal was > 100 µM each time.

On to `CC1OC(=O)N2CCC=CC12` (configuration not stated), for which the TGI with DMS 273 small cell lung, in the assay on HOP-18 NSCLC, with KM20L2 colon, in the assay with M19-MEL melanoma, in the assay with OVCAR-4 ovarian and with UO-31 renal was > 100 µM each time.

Consider `CC1=CC(=O)N2C(OC[C@@H]2c2ccccc2)O1` (some centres not stated), for which the TGI in the assay on CAKI-1 renal, in the assay on HL-60(TB) leukemia, with HOP-18 NSCLC, in the assay with KM20L2 colon, in the assay with M19-MEL melanoma and in the assay on OVCAR-4 ovarian was > 100 µM each time. In the assay on UO-31 renal, the TGI is > 100 µM.

For the compound `Oc1ccc(O)c(-n2cccn2)c1-n1cccn1`, the TGI was > 100 µM in the assay on CAKI-1 renal; > 100 µM with DMS 273 small cell lung; > 10 µM in the assay with HL-60(TB) leukemia; > 100 µM with KM20L2 colon; > 100 µM in the assay with M19-MEL melanoma; > 100 µM in the assay on OVCAR-4 ovarian. Also, the TGI with UO-31 renal was > 100 µM.

With `CCCCCC/C(CC(=O)CCC(=O)NCCc1ccccc1)=N\Nc1ccc([N+](=O)[O-])cc1[N+](=O)[O-]`, the TGI in the assay with CAKI-1 renal was > 100 µM; with DMS 273 small cell lung it was > 100 µM; in the assay with HL-60(TB) leukemia, 70.5 µM; with HOP-18 NSCLC, > 100 µM; in the assay with KM20L2 colon, > 100 µM; with M19-MEL melanoma, > 100 µM. Also, the TGI in the assay on UO-31 renal is > 100 µM.

Turning to `Cc1ccc(C)c(NC(=O)C(=O)Nn2c(=S)[nH]c3ccccc3c2=O)c1`, the TGI with CAKI-1 renal, in the assay on DMS 273 small cell lung, in the assay with HL-60(TB) leukemia, in the assay with HOP-18 NSCLC, with KM20L2 colon and in the assay with OVCAR-4 ovarian was > 100 µM each time. The TGI with UO-31 renal was > 100 µM.
